Assay results: patent publication US20240228448A1 (Washington University, priority 2021, published 2024)
Where two headings read alike, the source gives them in different places.

Columns and labels:
[1] = biological target: S1P2 (Homo sapiens, UniProt O95136); assay: competitive S1Ps cell membrane binding assay against [32P]S1P, S1P2; conditions: Table 6
[2] = biological target: S1P3 (Homo sapiens, UniProt Q99500); assay: competitive S1Ps cell membrane binding assay against [32P]S1P, S1P3; conditions: Table 6
Sequence of S1P3 (Q99500 whole entry, species assumed): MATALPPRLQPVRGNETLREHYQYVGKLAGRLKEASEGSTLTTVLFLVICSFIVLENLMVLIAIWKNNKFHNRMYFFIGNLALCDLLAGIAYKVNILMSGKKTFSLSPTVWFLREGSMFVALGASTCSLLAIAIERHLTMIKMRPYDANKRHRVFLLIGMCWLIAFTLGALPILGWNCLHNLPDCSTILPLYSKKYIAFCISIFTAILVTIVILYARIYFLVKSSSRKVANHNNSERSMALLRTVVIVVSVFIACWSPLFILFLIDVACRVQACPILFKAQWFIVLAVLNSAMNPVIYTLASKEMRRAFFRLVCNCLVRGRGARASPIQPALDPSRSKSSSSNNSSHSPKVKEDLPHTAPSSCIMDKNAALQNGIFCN

[3] = biological target: T1, S1P4 (Homo sapiens, UniProt O95977); assay: competitive S1Ps cell membrane binding assay against [32P]S1P, S1P4; conditions: Table 6; read-out: IC50 for S1P4
T1 sequence (O95977 1-384): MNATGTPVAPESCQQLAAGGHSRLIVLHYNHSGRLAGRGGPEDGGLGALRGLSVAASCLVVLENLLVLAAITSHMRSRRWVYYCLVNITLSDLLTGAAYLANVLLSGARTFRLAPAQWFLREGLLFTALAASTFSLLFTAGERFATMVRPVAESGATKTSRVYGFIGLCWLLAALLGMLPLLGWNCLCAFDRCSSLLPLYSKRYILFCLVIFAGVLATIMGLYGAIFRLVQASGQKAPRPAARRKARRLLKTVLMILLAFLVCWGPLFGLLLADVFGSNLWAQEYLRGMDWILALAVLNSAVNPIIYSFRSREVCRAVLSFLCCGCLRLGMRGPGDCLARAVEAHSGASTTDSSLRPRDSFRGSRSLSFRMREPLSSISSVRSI

[4] = biological target: S1P5 (Homo sapiens, UniProt Q9H228); assay: competitive S1Ps cell membrane binding assay against [32P]S1P, S1P5
Sequence of S1P5 (Q9H228 whole entry, species assumed): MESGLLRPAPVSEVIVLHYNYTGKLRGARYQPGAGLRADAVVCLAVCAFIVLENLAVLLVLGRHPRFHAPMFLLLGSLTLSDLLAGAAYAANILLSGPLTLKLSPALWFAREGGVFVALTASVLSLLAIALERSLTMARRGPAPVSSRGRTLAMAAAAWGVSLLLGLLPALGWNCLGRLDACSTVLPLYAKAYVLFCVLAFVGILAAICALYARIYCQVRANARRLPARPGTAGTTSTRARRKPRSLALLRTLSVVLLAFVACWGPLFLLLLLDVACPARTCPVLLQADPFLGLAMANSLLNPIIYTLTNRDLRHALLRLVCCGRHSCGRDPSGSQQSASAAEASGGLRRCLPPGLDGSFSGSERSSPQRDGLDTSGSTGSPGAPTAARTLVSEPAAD
Description: (§2) One way to measure affinity is use of a general competition binding assay.

[5] = system: S1P2-5; assay: competitive S1Ps cell membrane binding assay against [32P]S1P, S1P2-5 reported together; conditions: for selectivity over S1P2-5: in words
Description: as §2

[6] = biological target: S1P1 (Homo sapiens, UniProt P21453); assay: competitive S1Ps cell membrane binding assay against [32P]S1P, S1P1; conditions: for IC50 for S1P1 (nM): Table 6, single determinations
Sequence of S1P1 (Homo sapiens, UniProt P21453) (P21453 whole entry, species assumed): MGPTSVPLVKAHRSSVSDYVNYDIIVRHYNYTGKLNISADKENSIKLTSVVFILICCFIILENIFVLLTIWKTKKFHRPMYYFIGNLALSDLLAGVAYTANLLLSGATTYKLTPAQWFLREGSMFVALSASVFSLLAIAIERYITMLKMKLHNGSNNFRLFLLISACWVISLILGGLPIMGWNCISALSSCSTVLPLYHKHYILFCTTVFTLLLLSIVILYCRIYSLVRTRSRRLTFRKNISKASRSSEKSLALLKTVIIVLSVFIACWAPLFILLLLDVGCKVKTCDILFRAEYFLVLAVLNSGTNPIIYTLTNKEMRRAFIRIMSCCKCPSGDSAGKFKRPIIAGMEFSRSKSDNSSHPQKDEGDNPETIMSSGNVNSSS
Description: as §2

[7] = biological target: T2, S1P1 (Mus musculus, UniProt O08530); assay: PET with [18F]TZ4877 in S. aureus infected mice; format: in vivo; conditions: microPET, in words
T2 construct: from tissue; host or cells: living mice (whole body, brain, tissues)
T2 sequence (O08530 whole entry): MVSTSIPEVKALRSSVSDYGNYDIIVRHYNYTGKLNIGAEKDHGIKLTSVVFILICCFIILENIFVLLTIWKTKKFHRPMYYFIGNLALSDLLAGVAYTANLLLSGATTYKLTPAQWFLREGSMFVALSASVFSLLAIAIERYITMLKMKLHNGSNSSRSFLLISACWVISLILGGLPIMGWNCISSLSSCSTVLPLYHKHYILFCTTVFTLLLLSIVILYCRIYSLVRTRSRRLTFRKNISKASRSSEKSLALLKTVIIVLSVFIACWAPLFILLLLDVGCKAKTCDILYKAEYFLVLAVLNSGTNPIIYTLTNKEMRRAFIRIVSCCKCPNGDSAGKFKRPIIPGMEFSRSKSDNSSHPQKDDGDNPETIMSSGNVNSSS
Method: Mice were euthanized at 30 min, and S. aureus was injected 24 hours prior to radiotracer injection. […] IHC staining was used for confirmation in infected versus sham controls (FIG. 12E). Increasing signals of the inflammation related cytokines and chemokines were detected in liver.

[8] = system: S1PR1; assay: NHP PET brain imaging blocking studies; format: in vivo, nonhuman primate; conditions: NHP PET self-blocking, in words
[9] = Ex-vivo rat biodistribution and EAE rat PET studies of [18F]TZ82112; conditions: in words
[10] = HPLC radiometabolite analysis of rat plasma and rat brain, [18F]TZ82112; format: in vivo; conditions: in words
Description: (§1) Considering the high NHP brain uptake and clinically favorable pharmacokinetics compared to other F-18 S1PR1 radiotracers such as [^18F]FCS1P1 and [^18F]4877, we believe [^18F]TZ82112 is worth to transfer into clinical evaluation to confirm [18F]TZ82112 is the best S1PR1 radiotracer for clinical assessment of the neuroinflammation status by measurement of the S1PR1 receptor expression level. On the other side, as a S1PR1 radiotracer, [^18F]TZ82112 has its limitation for preclinical investigation because it quickly metabolites to form a lipophilic radiometabolite which will increase noise signal for PET measurement of S1PR1 expression in inflamed tissues.

[11] = HPLC radiometabolite analysis of nonhuman primate plasma, [18F]TZ82112; format: in vivo; conditions: NHP plasma compared with rat plasma, in words
Description: as §1

[12] = Table 5, read-out: IC50 (nM) S1P5
[13] = Table 7, read-out: IC50 (nM) S1P2-5
[14] = read-out: IC50 (nM) S1P1, Table 7

Sequence of S1P2 (O95136 whole entry, species assumed): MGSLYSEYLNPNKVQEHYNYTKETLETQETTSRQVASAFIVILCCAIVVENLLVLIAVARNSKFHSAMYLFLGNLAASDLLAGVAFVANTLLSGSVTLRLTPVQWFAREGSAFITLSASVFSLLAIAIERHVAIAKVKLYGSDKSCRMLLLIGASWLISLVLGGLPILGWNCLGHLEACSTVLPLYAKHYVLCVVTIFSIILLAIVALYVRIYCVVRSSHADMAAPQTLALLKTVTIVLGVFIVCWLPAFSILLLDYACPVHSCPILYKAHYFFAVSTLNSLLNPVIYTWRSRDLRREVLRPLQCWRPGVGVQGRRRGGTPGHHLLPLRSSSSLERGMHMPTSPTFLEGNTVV

Row | IC50 [1] [nM] | IC50 for S1P3 (nM) [2] | IC50 [3] [nM] | IC50 [4, 12] [nM] | IC50 for S1P5 (nM) ([4]; Table 6) | IC50 [5, 13] [nM] | IC50 ([6]; IC50 for S1P1, running text) [nM] | IC50 for S1P1 (nM) [6] | IC50 [6, 14] [nM] | IC50 [2] [nM] | IC50 ([4]; Table 6, read-out: IC50 for S1P5) [nM] | IC50 ([5]; read-out: IC50 for S1P2-5) [nM] | brain uptake, infected versus sham mice [7] | radiometabolite in brain tissue ([10]; rat brain tissue samples) | percentage of the same radiometabolite in plasma [11] | SMILES | selectivity over S1P2-5 [5] | brain uptake after pretreatment with cold TZ82112 [8] | spinal cord uptake compared to the normal controls ([9]; EAE rat model of MS, PET) | brain uptake and washout ([9]; ex-vivo rat biodistribution) | radiometabolite in plasma ([10]; rat plasma)
1 | > 1000 | Not fit | > 1000 | 77.3 | Not fit | > 1000 | < 20 | Not detected | 7.6 ± 0.2 |  |  |  |  |  |  | Cc1ccccc1-c1ccc(-c2nc(-c3ccc(CN(C)CC(=O)O)c(F)c3)no2)cc1C(F)(F)F [TZ82-47] | good selectivity |  |  |  | 
2 | > 1000 |  | > 1000 | 23.1 |  | > 1000 | < 20 | Not detected | 0.8 ± 0.2 | 189 | 194 |  |  |  |  | Cc1ccccc1-c1ccc(-c2nc(-c3ccc(CN(C)CCCC(=O)O)c(F)c3)no2)cc1C(F)(F)F [TZ82-48] | good selectivity |  |  |  | 
3 |  |  |  |  |  |  |  |  |  |  |  | > 1000 | higher uptake in infected mice |  |  | OCCOCc1ccc(-c2noc(-c3ccc(OCC[18F])c(C(F)(F)F)c3)n2)cc1 [[^18F]TZ4877] |  |  |  |  | 
4 |  |  |  |  |  |  |  |  |  |  |  |  |  | no radioactive metabolite | much lower | CN(CCCO)Cc1ccc(-c2noc(-c3ccc(OCC[18F])c(C(F)(F)F)c3)n2)cc1F [[^18F]TZ82112] |  | reduce the its brain uptake | increased spinal cord uptake | high initial brain uptake and good brain washout kinetics | quickly generated a high percentage of a radiometabolite
